Test systems include Escherichia coli W3110; Salmonella sp.; Enterococcus faecalis; Staphylococcus aureus.
Test in all cases: ≥ marks a high value that may be exact or a test limit, other limits are often not marked, values filed in µg/mL are converted to µM
The test system of experiment [1] is Acinetobacter baumannii MTCC 9829.
Experiment [2] has as its system Alcaligenes faecalis MTCC 1937.
The test system of experiment [3] is Alkalihalobacillus alcalophilus MTCC 860.
The test system of experiment [4] is Bordetella bronchiseptica MTCC 6837.
The subject of experiment [5] is Citrobacter freundii MTCC 1658.
Experiment [6] relates to Citrobacter koseri MTCC 1657.
Experiment [7] has as its system Corynebacterium glutamicum MTCC 2679.
Experiment [8] relates to Enterococcus faecalis MTCC 439.
Experiment [9] relates to Escherichia coli K12 MG1655.
In experiment [10] the test system is Haemophilus influenzae MTCC 621.
The subject of experiment [11] is Klebsiella aerogenes MTCC 111.
For experiment [12], the system named is Klebsiella oxytoca MTCC 2275.
The subject of experiment [13] is Klebsiella pneumoniae MTCC 7407.
Experiment [14] deals with Pluralibacter gergoviae MTCC 3826.
In experiment [15] the test system is Proteus mirabilis MTCC 3158.
Experiment [16] deals with Proteus vulgaris MTCC 1771.
The subject of experiment [17] is Pseudomonas aeruginosa MTCC 3542.
Experiment [18] has as its system Salmonella enterica MTCC 9844.
The test system of experiment [19] is Salmonella enterica subsp. enterica serovar Typhimurium ATCC 14028.
The subject of experiment [20] is Shigella boydii MTCC 11947.
Experiment [21] deals with Shigella flexneri MTCC 1457.
Experiment [22] has as its system Staphylococcus aureus MTCC 3160.
In experiment [23] the test system is Staphylococcus haemolyticus MTCC 3383.
Experiment [24] has as its system Stenotrophomonas maltophilia MTCC 1890.
The subject of experiment [25] is Vibrio cholerae MTCC 3904.
The subject of experiment [26] is Klebsiella pneumoniae ATCC BAA-1705.
For experiment [27], the system named is Pseudomonas aeruginosa PAK.
Experiment [28] concerns Streptococcus mutans UA159.
The test system of experiment [29] is Streptococcus sanguinis NY101.

Converted amounts (≈) assume the structure as drawn.

For the compound `CC[C@H](C)[C@H](NC(=O)[C@H](C)NC(=O)[C@H](CC(C)C)NC(=O)[C@H](C)NC(=O)[C@H](CC(C)C)NC(=O)[C@H](CCCCN)NC(=O)[C@H](CC(C)C)NC(=O)[C@H](C)NC(=O)[C@H](CO)NC(=O)[C@H](C)NC(=O)[C@H](CC(C)C)NC(=O)[C@H](CC(C)C)NC(=O)[C@H](CCCCN)NC(=O)[C@H](CCCCN)NC(=O)[C@H](C)NC(=O)[C@@H](NC(=O)[C@@H](N)CCC(=O)O)C(C)C)C(=O)O` [EVAKKLLASALKLALAI], the MIC in experiment [1] was not below 73.1 µM; in experiment [2], not below 73.1 µM; in experiment [3], not below 73.1 µM; in experiment [4] it was 9.13 µM (≈ 16 µg/mL); in [5] it was not below 73.1 µM; in [6] it was not below 73.1 µM. Also, the MIC is 18.3 µM (≈ 32 µg/mL) in [7]; not below 73.1 µM in experiment [8]; not below 73.1 µM in [9]; not below 36.5 µM in experiment [10]; not below 73.1 µM in experiment [11]; not below 73.1 µM in experiment [12]. In addition, the MIC in [13], in [14], in experiment [15], in experiment [16], in [17] and in experiment [18] was not below 73.1 µM throughout. The MIC was more than 73.1 µM in experiment [19]; not below 73.1 µM in experiment [20]; not below 73.1 µM in experiment [21]; not below 73.1 µM in experiment [22]; not below 73.1 µM in experiment [23]; not below 73.1 µM in experiment [24]. The same compound came in with an MIC in experiment [25] not below 73.1 µM.
In the case of `CC[C@H](C)[C@H](NC(=O)[C@H](C)N)C(=O)N[C@H](C(=O)N[C@@H](CCC(=O)O)C(=O)N[C@@H](CCC(N)=O)C(=O)N[C@@H](CC(C)C)C(=O)N[C@@H](CCCN=C(N)N)C(=O)N[C@@H](CCCCN)C(=O)N[C@@H](CCCN=C(N)N)C(=O)N[C@@H](CS)C(=O)O)C(C)C` [AIVEQLRKRC], the MIC in experiment [1], in [2], in [3], in [4], in experiment [5] and in experiment [6] was not below 105 µM in each case. Further, the MIC in experiment [7], in [8], in experiment [9], in experiment [10], in experiment [11] and in experiment [12] was not below 105 µM throughout. Moreover, the MIC in experiment [13], in [14], in experiment [15], in experiment [16], in [17] and in [18] was not below 105 µM throughout. Moreover, the MIC in [19] was more than 105 µM; in experiment [20], not below 105 µM; in experiment [21], not below 105 µM; in experiment [22], not below 105 µM; in [23] it was not below 105 µM; in [24], not below 105 µM. Further, the MIC in experiment [25] was not below 105 µM.
As to `CC(C)C[C@H](NC(=O)CNC(=O)[C@H](CC(C)C)NC(=O)[C@H](CCCCN)NC(=O)[C@H](C)NC(=O)[C@H](Cc1c[nH]c2ccccc12)NC(=O)[C@H](Cc1c[nH]c2ccccc12)NC(=O)[C@@H](N)Cc1c[nH]c2ccccc12)C(=O)N[C@@H](CCCCN)C(=O)N[C@@H](CC(C)C)C(=O)N[C@@H](CC(C)C)C(=O)N[C@@H](CCCN=C(N)N)C(=O)N[C@@H](Cc1ccc(O)cc1)C(=O)N[C@@H](CCCN=C(N)N)C(=O)N[C@@H](CCCN=C(N)N)C(=O)N[C@@H](Cc1c[nH]c2ccccc12)C(=O)N[C@@H](Cc1ccc(O)cc1)C(=O)O` [WWWAKLGLKLLRYRRWY], the MIC against Escherichia coli W3110 was found to be 4 µM (≈ 9.58 µg/mL); in experiment [26], 8 µM (≈ 19.2 µg/mL).
In the case of `CC[C@H](C)[C@H](NC(=O)[C@H](CCCCN)NC(=O)[C@H](CCCCN)NC(=O)[C@H](C)NC(=O)[C@H](CCCCN)NC(=O)[C@H](CO)NC(=O)[C@H](CCCN=C(N)N)NC(=O)[C@H](Cc1c[nH]c2ccccc12)NC(=O)[C@H](CCCCN)NC(=O)[C@H](CCCCN)NC(=O)[C@H](Cc1c[nH]c2ccccc12)NC(=O)[C@H](CCCN=C(N)N)NC(=O)[C@H](CCCCN)NC(=O)[C@@H](N)Cc1ccc(O)cc1)C(=O)N[C@@H](CC(C)C)C(=O)O` [YKRWKKWRSKAKKIL], the MIC in experiment [1] was 7.92 µM (≈ 16 µg/mL); in experiment [2], not below 63.4 µM; in experiment [3] it was 31.7 µM (≈ 64 µg/mL); in [4], 3.96 µM (≈ 8 µg/mL); in [5] it was not below 63.4 µM; in experiment [6] it was 7.92 µM (≈ 16 µg/mL). The MIC was 0.99 µM (≈ 2 µg/mL) in [7]; not below 63.4 µM in [8]; 1.98 µM (≈ 4 µg/mL) in experiment [9]; 15.8 µM (≈ 32 µg/mL) in experiment [10]; not below 63.4 µM in experiment [11]; 15.8 µM (≈ 32 µg/mL) in [12]. Moreover, the MIC is not below 63.4 µM in experiment [13]; not below 63.4 µM in experiment [14]; not below 63.4 µM in experiment [15]; 31.7 µM (≈ 64 µg/mL) in experiment [16]; not below 63.4 µM in [17]; 7.92 µM (≈ 16 µg/mL) in experiment [18]. The MIC in experiment [19] is 15.8 µM (≈ 32 µg/mL); in [20], 3.96 µM (≈ 8 µg/mL); in experiment [21], 3.96 µM (≈ 8 µg/mL); in experiment [22], not below 63.4 µM; in [23], 1.98 µM (≈ 4 µg/mL); in experiment [24], not below 63.4 µM. This compound had an MIC in experiment [25] not below 63.4 µM.
As to `CC(C)C[C@H](NC(=O)[C@H](CCCCN)NC(=O)[C@H](CC(C)C)NC(=O)[C@@H](N)CC(C)C)C(=O)N[C@@H](Cc1ccccc1)C(=O)N[C@@H](Cc1ccccc1)C(=O)N1CCC[C@H]1C(=O)N[C@@H](Cc1ccccc1)C(=O)N[C@@H](CC(C)C)C(=O)N[C@@H](CCC(=O)O)C(=O)N[C@H](C(=O)NCC(=O)N[C@@H](CCC(=O)O)C(=O)O)[C@@H](C)O` [LLKLFFPFLETGE], the MIC in the experiment with Salmonella sp. was not below 256 µM.
`CC(C)C[C@H](NC(=O)[C@H](Cc1cnc[nH]1)NC(=O)[C@H](Cc1ccccc1)NC(=O)[C@H](Cc1cnc[nH]1)NC(=O)[C@@H](N)Cc1ccccc1)C(=O)N[C@@H](Cc1cnc[nH]1)C(=O)N[C@@H](Cc1ccccc1)C(N)=O` [FHFHLHF]: the MIC is 16.3 µM (≈ 16 µg/mL) against Enterococcus faecalis; 8.13 µM (≈ 7.99 µg/mL) with Escherichia coli W3110; 16.3 µM (≈ 16 µg/mL) in experiment [27]; 32.5 µM (≈ 32 µg/mL) with Staphylococcus aureus; 8.13 µM (≈ 7.99 µg/mL) in [28]; 16.3 µM (≈ 16 µg/mL) in experiment [29].
On to `CC[C@H](C)[C@H](N)C(=O)N[C@@H](Cc1c[nH]c2ccccc12)C(=O)N[C@@H](Cc1c[nH]c2ccccc12)C(=O)N[C@@H](C)C(=O)N[C@@H](CCCCN)C(=O)N[C@@H](Cc1c[nH]c2ccccc12)C(=O)NCC(=O)N[C@@H](CC(C)C)C(=O)N[C@@H](CCCCN)C(=O)N[C@@H](CC(C)C)C(=O)N[C@@H](CC(C)C)C(=O)N[C@@H](CCCN=C(N)N)C(=O)N[C@@H](Cc1ccc(O)cc1)C(=O)N[C@@H](CCCN=C(N)N)C(=O)N[C@@H](CCCN=C(N)N)C(=O)N[C@H](C(=O)N[C@@H](Cc1ccc(O)cc1)C(=O)O)[C@@H](C)CC` [IWWAKWGLKLLRYRRIY], for which the results for the MIC (with Escherichia coli W3110; in [26]) were 1 µM (≈ 2.32 µg/mL) and 8 µM (≈ 18.6 µg/mL), respectively.

These data come from DBAASP.
